Literature values in patent US20090092696A1, “Herbal combination omega oil aphrodisiac” (priority 2007, published 2009).

Assays:
corpus cavernosum = conditions: for erection when injected directly into the corpus cavernosum: hypodermic needle injection; for duration of erection after injection: appropriate dose, intracavernosal
impotent men = conditions: ingestion
impotentia erectionis = conditions: buccal administration of 100 I.U. three times a day for 14 days

For CCN(CC)CCOC(=O)C(Cc1cccc2ccccc12)CC1CCCO1 (mixture of isomers) [naftidrofuryl], the “erection when injected directly into the corpus cavernosum” value (corpus cavernosum) is given as “caused erection”.

For COC(=O)[C@@H]1[C@H]2C[C@H]3c4[nH]c5ccccc5c4CCN3C[C@@H]2CC[C@@H]1O [Yohimbine], the “subjective improvement in erectile ability” value (impotent men; impotent men treated) is listed as 38% and the “treated patients reporting complete satisfaction” value (impotent men) is listed as 5%.

For CN(C)CCCN1c2ccccc2CCc2ccccc21 [imipramine], the “erection when injected directly into the corpus cavernosum” value (corpus cavernosum) is given as “caused erection”.

For CC[C@H](C)[C@@H]1NC(=O)[C@H](Cc2ccc(O)cc2)NC(=O)[C@@H](N)CSSC[C@@H](C(=O)N2CCC[C@H]2C(=O)N[C@@H](CC(C)C)C(=O)NCC(N)=O)NC(=O)[C@H](CC(N)=O)NC(=O)[C@H](CCC(N)=O)NC1=O [oxytocin], the “improvement of impotentia erectionis” value (impotentia erectionis) is listed as 12 of the 16.

In the case of COc1ccc(Cc2nccc3cc(OC)c(OC)cc23)cc1OC [papaverine], the “duration of erection after injection” value (corpus cavernosum) is listed as “unrelenting erection lasting for hours” and the “erection when injected directly into the corpus cavernosum” value (corpus cavernosum) is listed as “caused erection”.

In the case of CC(COc1ccccc1)N(CCCl)Cc1ccccc1 (stereo not drawn) [phenoxybenzamine], the “duration of erection after injection” value (corpus cavernosum) is given as “unrelenting erection lasting for hours” and the “erection when injected directly into the corpus cavernosum” value (corpus cavernosum) is given as “caused erection”.

For Cc1ccc(N(CC2=NCCN2)c2cccc(O)c2)cc1 [phentolamine], the “erection when injected directly into the corpus cavernosum” value (corpus cavernosum) is given as “caused erection”.

In the case of CC(=O)Oc1cc(C(C)C)c(OCCN(C)C)cc1C [thymoxamine], the “erection when injected directly into the corpus cavernosum” value (corpus cavernosum) is given as “caused erection”.

For COc1ccc(CCN(C)CCCC(C#N)(c2ccc(OC)c(OC)c2)C(C)C)cc1OC (stereo not drawn) [verapamil], the “erection when injected directly into the corpus cavernosum” value (corpus cavernosum) is listed as “caused erection”.
